Measured values from patent US20200022963A1, “PHARMACEUTICAL COMPOSITION COMPRISING BETAHISTINE” (Otolanum AG, priority 2017, published 2020).

How the values were obtained:
[1] = Relative bioavailability of intranasal versus oral betahistine in humans, Example 6; format: in vivo; conditions: human
Experimental: (Journal of Psychopharmacology, 2016, Vol. 30(3) 237-241). In brief, in this study, forty-eight healthy women were recruited and randomized to receive per os (i.e. orally) either betahistine 144 mg/day (48 mg t.i.d.) or matching placebo for 4 weeks. […] Study medication (betahistine or matching placebo) was administered at least 30 minutes prior to eating. On Day 8, blood samples of 6 mL each were collected at 8 am, and 30, 60, 150 and 300 minutes thereafter. Plasma concentrations of betahistine and its metabolite 2-PAA were determined by high-performance liquidy chromatography.

[2] = human, cited from earlier work
[3] = cited from earlier work
[4] = Oral betahistine study in healthy women, Barak et al.; format: in vivo; conditions: human, oral 48 mg (0.8 mg/kg), Barak et al. data
Experimental: For the calculation of the relative bioavailability of intranasal betahistine compared to peroral betahistine, the area under the concentration-time curve (AUC) determined in Example 3 was compared to the AUC determined in a study with oral betahistine in healthy volunteers described in Barak et al. (Journal of Psychopharmacology, 2016, Vol. 30(3) 237-241). In brief, in this study, forty-eight healthy women were recruited and randomized to receive per os (i.e. orally) either betahistine 144 mg/day (48 mg t.i.d.) or matching placebo for 4 weeks. Their mean weight was 60.2 kg in the active-treated group (n=24) and 59.8 kg in the placebo group (n=24). Study medication (betahistine or matching placebo) was administered at least 30 minutes prior to eating. On Day 8, blood samples of 6 mL each were collected at 8 am, and 30, 60, 150 and 300 minutes thereafter. Plasma concentrations of betahistine and its metabolite 2-PAA were determined by high-performance liquidy chromatography.

**Q.** For `CNCCc1ccccn1` [betahistine], which “bioavailability with intranasal administration higher than with oral administration” value [1] is on record?
**A.** The value was 20-40 times.

**Q.** What about the “relative bioavailability fold factor” value ([1]; 40 mg intranasal vs. 48 mg per os) of the same compound?
**A.** The value was 41.1 ×.

**Q.** And the “relative bioavailability of oral vs. intranasal” value ([1]; Barak et al. oral AUC vs Example 3 intranasal AUC)?
**A.** The value was “approximately 2.4%”.

**Q.** And the “Rel. Bioavail.” value ([1]; intranasal 5 mg relative to oral 48 mg (Barak et al.))?
**A.** Its value is 19.9.

**Q.** What about the “Rel. Bioavail.” value ([1]; intranasal 10 mg relative to oral 48 mg (Barak et al.)) of the same compound?
**A.** Its value is 24.2.

**Q.** What about the “Rel. Bioavail.” value ([1]; intranasal 20 mg relative to oral 48 mg (Barak et al.)) of the same compound?
**A.** The value was 37.0.

**Q.** What about the “Rel. Bioavail.” value ([1]; intranasal 40 mg relative to oral 48 mg (Barak et al.)) of the same compound?
**A.** Its value is 41.1.

**Q.** And the AUC ([2]; oral 48 mg (0.8 mg/kg), Barak et al. data)?
**A.** The AUC was 0.121 ng·h/mL.

**Q.** And the “AUC(0-5h)” value ([2]; oral 48 mg t.i.d., approximately 0.8 mg/kg, Day 8, Barak et al.)?
**A.** The value was 0.121 ng·h/mL.

**Q.** And the plasma half-life ([3]; betahistine, humans)?
**A.** Its plasma half-life is 3 to 4 h.

**Q.** And the Cmax ([3]; human, oral betahistine 24 mg, Chen et al.)?
**A.** Its Cmax is < 0.5 ng/mL.

**Q.** What about the absolute bioavailability ([3]; orally administered betahistine, estimated (SmPC)) of the same compound?
**A.** The absolute bioavailability was “around 1%”.

**Q.** And the AUC/Dose [4]?
**A.** The AUC/Dose was 0.15 (h · ng/mL)/(mg/kg).
